Patent US9403873B2, “Peptides targeting receptor activator of nuclear factor-κB (RANK) and their applications” (UNIVERSITE DE NANTES, priority 2011, dated 2016)
“Also recorded” adds a separate entry of the source. Ends that are not written are not given here.

Assays:
hRANK [1] = target: T1, hRANK (Homo sapiens, UniProt Q9Y6Q6); test: Saturation transfer difference (STD) NMR of Pep8 binding to RANK; conditions: Pep8:RANK-Fc 100:1 to 1000:1, phosphate buffer
T1 construct: For NMR experiments with soluble RANK receptor-Fc (R&D Systems); purchased R&D Systems
T1 sequence (Q9Y6Q6 30-212 limits assumed): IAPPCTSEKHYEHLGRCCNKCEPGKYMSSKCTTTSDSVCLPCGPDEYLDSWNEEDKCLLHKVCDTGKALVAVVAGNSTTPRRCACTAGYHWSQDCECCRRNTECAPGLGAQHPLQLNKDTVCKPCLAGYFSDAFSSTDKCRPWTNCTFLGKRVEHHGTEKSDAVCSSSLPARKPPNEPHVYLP
Procedure: NMR experiments were run at 500.13 MHz for ^1H on a Bruker AVANCE 500 spectrometer with a Linux PC workstation, using standard 5 mm or Shigemi 3 mm tubes with susceptibility matched to solvent ^2H2O/Water sample tubes. The spectra of the polypeptide Pep8 at 0.1, 0.2, 0.4 or 1 mM sample concentrations were recorded in 50 mM sodium phosphate buffer at pH 7.4, prepared in 95% H2O and 5% ^2H2O. Two-dimensional NMR spectra were recorded in the phase-sensitive mode using the States—TPPI method (States et al. 1982). […] The two-dimensional COSY, TOCSY and NOESY spectra were recorded at 280 K. TOCSY spectra were recorded using a MLEV-17 spin-lock sequence (Bax et al. 1985) with a mixing time (τm) of 35 and 70 ms, respectively. 2D NOESY experiments were recorded at a mixing time (τm) of 100, 200 or 500 ms. The heteronuclear spectra ^1H-^13C HSQC were recorded at 280 K in the same conditions. […] Transferred nuclear Overhauser effect (TRNOESY) spectra of Pep8 with RANK receptor-Fc protein were recorded using a mixing time (Tm) of 100, 200 or 500 ms.
^1D ^1H STD NMR spectra of the polypeptide—protein mixtures were recorded at 500 MHz with 4K scans and selective saturation of protein resonances as described previously (Pons et al. 2011). […]

hRANK [2] = target: T1, hRANK; test: Surface plasmon resonance (Biacore) binding to immobilized RANK-Fc; conditions: SPR, 1:1 Langmuir model
Procedure: Biosensor experiments were carried out on a BIAcore 3000 instrument (BIAcore) as published previously (Baud′Huin et al. 2009). Recombinant purified RANKL (2 μg/mL in 5 mM maleate, pH 5.75) or RANK-Fc carrier-free (5 μg/mL in sodium acetate buffer, pH 5.0) were covalently immobilized to the dextran matrix of a CM5 sensor chip (BIAcore) at a flow rate of 5 μL/min. Immobilization levels ranging from 400 to 3000 Response Units (RU) for RANKL or 5000 RU for RANK were obtained. Binding assays were performed at 25° C. in 10 mM Hepes buffer, pH 7.4. The association phase was 180 seconds followed by a dissociation phase in the same buffer. Polypeptides binding studies to RANK or RANKL were determined using single cycle kinetics, starting with 100 μM of the polypeptide of interest followed by 2-fold serial dilutions (ranging from 100 to 0.78 μM). The sensorgrams were fitted to calculate the equilibrium-dissociation constants using the Langmuir 1:1 model with BiaEval 4.1 software (BIAcore). RANK-Fc CF, RANKL and OPG carrier-free were obtained from R&D Systems (Minneapolis, Minn., USA).

[3] = Stability of the polypeptide under NMR conditions in phosphate buffer; assay type: physicochemical; conditions: without protein, 2 weeks
Procedure: NMR experiments were run at 500.13 MHz for ^1H on a Bruker AVANCE 500 spectrometer with a Linux PC workstation, using standard 5 mm or Shigemi 3 mm tubes with susceptibility matched to solvent ^2H2O/Water sample tubes. The spectra of the polypeptide Pep8 at 0.1, 0.2, 0.4 or 1 mM sample concentrations were recorded in 50 mM sodium phosphate buffer at pH 7.4, prepared in 95% H2O and 5% ^2H2O. Two-dimensional NMR spectra were recorded in the phase-sensitive mode using the States—TPPI method (States et al. 1982). All experiments were carried out using the WATERGATE pulse sequence for water suppression (Piotto et al. 1992) or using the excitation sculpting water suppression (Hwang et al. 1995) to eliminate solvent signal in H2O/^2H2O 95:5 solution. The two-dimensional COSY, TOCSY and NOESY spectra were recorded at 280 K. TOCSY spectra were recorded using a MLEV-17 spin-lock sequence (Bax et al. 1985) with a mixing time (τm) of 35 and 70 ms, respectively. 2D NOESY experiments were recorded at a mixing time (τm) of 100, 200 or 500 ms. The heteronuclear spectra ^1H-^13C HSQC were recorded at 280 K in the same conditions. […] Transferred nuclear Overhauser effect (TRNOESY) spectra of Pep8 with RANK receptor-Fc protein were recorded using a mixing time (Tm) of 100, 200 or 500 ms.

[4] = system: cathepsin K, TRAP and NFATc1 mRNA in CD14+ cells; test: Real-time RT-PCR of osteoclast marker genes in CD14+ cells; assay type: cell-based, human; conditions: CD14+ cells with M-CSF and RANKL; day 3 to day 11 after RANKL stimulation

STD relative transfer ratio of residues C6S7 (hRANK [1]): 60%
STD saturation received by residues L3K4L5 (hRANK [1]): 100%
kon (hRANK [2]; read-out: association rate constant (kon)): 495 M⁻¹ s⁻¹
koff (hRANK [2]; read-out: dissociation rate constant (koff)): 0.0052 s⁻¹
stability under experimental NMR conditions [3]: remained stable
Sequence: NVLKLCSGE [Pep8, NVLKLCSGE]
mRNA expression of cathepsin K, TRAP and NFATc1 [4]: inhibited the mRNA expression; also recorded: markedly reduced
